Laboratory results published in the NIST ThermoML archive (doi:10.1021/acs.jced.6b01038).
Numbers after ± are expanded uncertainties.

Key:
[1] = refractive index (Na D-line) (dimensionless); conditions: 298.15 K; 101.3 kPa; Liquid; Standard Abbe refractometry
[2] = 298.15 K; 101.3 kPa; Liquid; Vibrating tube method

Structure (SMILES)	refractive index [1]	mass density [2] [kg/m3]
CNCCCN [N-methyl-1,3-diaminopropane]	1.44564 ± 0.0012	848 ± 5
CCN(CC)CCO [(diethylamino)ethanol]	1.43833 ± 0.001	880 ± 5
O [water]	1.33249 ± 0.001	
CN(CCO)CCO [N-methyldiethanolamine]	1.4674 ± 0.0011	1037 ± 2
